According to patent publication US10786444B2, “PH dependent carriers for targeted release of pharmaceuticals along the gastrointestinal tract, compositions therefrom, and making and using same” (PLx Opco Inc., priority 2011, dated 2020):

Experiment: physchem
Experimental: (§1) In this study, pure salicylic acid (SA) partitioning between cyclohexane and water versus salicylic acid partitioning between cyclohexane and water in SA Formulas A-D was investigated at pH 1 and at pH 7 simulating gastric fluids and duodenum fluids. The study was conducted by adding either SA, SA Formulas A-D into a cyclohexane/water partitioning system and measuring the differential partitioning of SA between the two phase as the value Log P.
as §1, with “naproxen (NAP)” for “salicylic acid (SA)”, “NAP” for “salicylic acid”, “NAP” for “SA”, “NAP, NAP” for “SA, SA”
as §1, with “indomethacin (INDO)” for “salicylic acid (SA)”, “INDO” for “salicylic acid”, “INDO” for “SA”, “INDO, INDO” for “SA, SA”
as §1, with “pure mefenamic” for “pure salicylic”, “acid (MFA)” for “acid (SA)”, “versus MFA” for “versus salicylic acid”, “in MFA” for “in SA”, “either MFA, MFA” for “either SA, SA”, “of MFA” for “of SA”

| logD hydrocarbon water (pH 1) | logD hydrocarbon water (pH 7) | Structure (SMILES) |
| --- | --- | --- |
| 1.05 | -1.81 | COc1ccc2c(c1)c(CC(=O)O)c(C)n2C(=O)c1ccc(Cl)cc1 [INDO, indomethacin] |
| -1.11 | 0 | O=C(O)c1ccccc1O [SA, salicylic acid] |
| 0 | 0.47 | Cc1cccc(Nc2ccccc2C(=O)O)c1C [MFA, mefenamic acid] |
